Reference: patent US11814367B2, “Inhibitors of glycogen synthase 1 (GYS1) and methods of use thereof” (Maze Therapeutics, Inc., priority 2021, dated 2023)

The compounds below were run against hGYS1 enzyme (recombinant hGYS1/GN1 protein) (Homo sapiens (Human), UniProt P13807) (assay: GYS1 coupled enzyme assay (PK/LDH)). Details: hGYS1/GN1 50 nM, UDP-Glucose 0.8 mM, G6P 1 mM; geometric mean of at least 2 runs.
Chain of hGYS1 enzyme (recombinant hGYS1/GN1 protein) (P13807 whole entry): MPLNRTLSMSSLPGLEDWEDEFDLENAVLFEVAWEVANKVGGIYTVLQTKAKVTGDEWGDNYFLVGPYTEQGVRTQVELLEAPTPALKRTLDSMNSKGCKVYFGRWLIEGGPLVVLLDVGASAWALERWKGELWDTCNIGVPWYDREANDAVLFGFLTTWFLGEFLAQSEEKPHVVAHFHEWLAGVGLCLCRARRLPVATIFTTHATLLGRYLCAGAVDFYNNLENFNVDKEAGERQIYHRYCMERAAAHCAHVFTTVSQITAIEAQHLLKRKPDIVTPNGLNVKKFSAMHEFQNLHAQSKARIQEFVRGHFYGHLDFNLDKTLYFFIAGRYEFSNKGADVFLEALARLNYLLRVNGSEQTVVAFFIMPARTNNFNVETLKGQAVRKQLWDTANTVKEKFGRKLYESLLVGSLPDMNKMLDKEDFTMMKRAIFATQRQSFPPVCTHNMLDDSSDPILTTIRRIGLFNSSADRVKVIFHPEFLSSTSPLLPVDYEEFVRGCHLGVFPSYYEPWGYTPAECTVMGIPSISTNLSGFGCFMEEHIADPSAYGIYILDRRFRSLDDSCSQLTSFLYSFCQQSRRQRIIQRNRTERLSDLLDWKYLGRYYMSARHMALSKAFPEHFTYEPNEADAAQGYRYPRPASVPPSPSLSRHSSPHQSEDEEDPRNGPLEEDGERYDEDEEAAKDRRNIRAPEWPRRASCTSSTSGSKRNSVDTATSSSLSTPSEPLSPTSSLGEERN
Chain of hGYS1 enzyme (recombinant hGYS1/GN1 protein) (P46976 whole entry partner): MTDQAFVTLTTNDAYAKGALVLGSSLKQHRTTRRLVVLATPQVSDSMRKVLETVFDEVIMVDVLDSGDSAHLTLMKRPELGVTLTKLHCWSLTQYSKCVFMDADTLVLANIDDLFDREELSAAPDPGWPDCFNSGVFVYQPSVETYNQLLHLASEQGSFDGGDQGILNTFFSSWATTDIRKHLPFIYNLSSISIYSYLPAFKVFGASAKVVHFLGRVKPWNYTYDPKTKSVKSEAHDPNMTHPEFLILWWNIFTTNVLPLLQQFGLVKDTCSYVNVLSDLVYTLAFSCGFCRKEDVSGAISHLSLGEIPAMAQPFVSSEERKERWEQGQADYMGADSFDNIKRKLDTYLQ
Type: biochemical
Text: The GYS1 coupled enzyme assay is a kinetic biochemical assay that indirectly quantifies the rate of glycogen synthesis by coupling the conversion of GYS1 substrate UDP-glucose into UDP with downstream enzymatic reactions. UDP is released from UDP-glucose as glucose monomers are linked into the growing glycogen strand by GYS1. The coupled assay then proceeds with pyruvate kinase utilizing UDP and phospho(enol)pyruvate (PEP) to form pyruvate. Lactate dehydrogenase then converts pyruvate and NADH into lactate and NAD+. Oxidation of NADH to NAD+ can be measured continuously with a plate reader by quantifying the decrease in NADH absorbance at 340 nm over time.
Compounds that inhibit the hGYS1 enzyme and, subsequently, the downstream conversion of NADH to NAD+, were tested using assay ready plates (black, clear bottom 384 well plates) in a final DMSO reaction volume of 2.5% DMSO. The Assay Buffer contained 50 mM Tris pH 7.5, 2 mM MgCl2, and 100 mM KCl. Fresh stocks of BSA at a final concentration of 0.02% and TCEP at 1 mM were added before splitting buffer into hGYS1 buffer and substrate buffer. To the hGYS1 buffer, rabbit liver glycogen was added at a final concentration of 0.2% glycogen. Glucose-6-Phosphate was added at 1 mM, recombinant hGYS1/GN1 protein was added at 50 nM to the substrate buffer, phosphoenolpyruvate (PEP) was added at 2 mM, UDP-Glucose was added at 0.8 mM, NADH) was added at 0.6 mM, and Pyruvate Kinase/Lactate Dehydrogenase was added at 20 units/mL. The reaction was initiated by mixing hGYS1 buffer and substrate buffer at a 1:1 ratio. Both buffers were plated using a liquid dispensing device with hGYS1 buffer plated first followed by the substrate buffer. Plates were spun briefly to eliminate air bubbles and are immediately read in continuous mode at an absorbance of 340 nm, for 10 time points in one-minute increments, for a total of 10 minutes. The slope from these 10 time points was normalized to the positive and negative control wells. The duplicate % inhibition values are then averaged and fit to a Hill equation for dose response according to the Levenberg-Marquardt algorithm with the Hill equation maximum set to 100 and the minimum set to 0.
Unless otherwise specified, IC50 values are reported as the geometric mean of at least 2 assay runs on separate days. Each run represents the average of a technical replicate, where each compound was assayed twice in the same plate. […] A superscript “#” symbol in Table 2 indicates results from a single assay run.
`CC(C)c1ccc([C@@H](NC(=O)[C@@H]2C[C@@H](F)CN2C(=O)c2cnco2)c2ccccc2)cc1` [Compound 12, (2S,4R)-4-fluoro-1-(1,3-oxazole-5-carbonyl)-N-[(S)-phenyl[4-(propan-2-yl)phenyl]methyl]pyrrolidine-2-carboxamide] showed an IC50 of 0.415 µM.
`CC(C)c1ccc([C@@H](NC(=O)[C@@H]2C[C@@H](F)CN2C(=O)Cc2cc[nH]n2)c2ccccc2)cc1` [Compound 19, (2S,4R)-4-fluoro-N-[(S)-phenyl[4-(propan-2-yl)phenyl]methyl]-1-[2-(1H-pyrazol-5-yl)acetyl]pyrrolidine-2-carboxamide] gave an IC50 of 0.047 µM.
`CC(C)c1ccc([C@@H](NC(=O)[C@@H]2C[C@@H](F)CN2C(=O)Cn2cc(Cl)cn2)c2ccccc2)cc1` [Compound 20, (2S,4R)-1-[2-(4-chloro-1H-pyrazol-1-yl)acetyl]-4-fluoro-N-[(S)-phenyl[4-(propan-2-yl)phenyl]methyl]pyrrolidine-2-carboxamide] gave an IC50 of 0.046 µM.
Work on `Cc1ncncc1C(=O)N1C[C@H](F)C[C@H]1C(=O)N[C@@H](c1ccccc1)c1ccc(C(C)C)cc1` [Compound 30, (2S,4R)-4-fluoro-1-(4-methylpyrimidine-5-carbonyl)-N-[(S)-phenyl[4-(propan-2-yl)phenyl]methyl]pyrrolidine-2-carboxamide] yielded an IC50 of 0.947 µM.
For `CC(C)c1ccc([C@@H](NC(=O)[C@@H]2C[C@@H](F)CN2C(=O)Cc2ccncc2)c2ccccc2)cc1` [Compound 39, (2S,4R)-4-fluoro-N-[(S)-phenyl[4-(propan-2-yl)phenyl]methyl]-1-[2-(pyridin-4-yl)acetyl]pyrrolidine-2-carboxamide], the IC50 was 0.05 µM.
Compound `CCc1nc(C(=O)N2C[C@H](F)C[C@H]2C(=O)N[C@@H](c2ccccc2)c2ccc(C(C)C)cc2)co1` [Compound 42, (2S,4R)-1-(2-ethyl-1,3-oxazole-4-carbonyl)-4-fluoro-N-[(S)-phenyl[4-(propan-2-yl)phenyl]methyl]pyrrolidine-2-carboxamide] has an IC50 of 0.495 µM.
In the case of `CC(C)c1ccc([C@@H](NC(=O)[C@@H]2C[C@@H](F)CN2C(=O)C(C)n2cccn2)c2ccccc2)cc1` (stereo partly drawn) [Compound 43, (2S,4R)-4-fluoro-N-[(S)-phenyl[4-(propan-2-yl)phenyl]methyl]-1-[2-(1H-pyrazol-1-yl)propanoyl]pyrrolidine-2-carboxamide], the IC50 is reported as 0.091 µM.
With `CC(C)c1ccc([C@@H](NC(=O)[C@@H]2C[C@@H](F)CN2C(=O)CCc2cnc[nH]2)c2ccccc2)cc1` [Compound 45, (2S,4R)-4-fluoro-1-[3-(1H-imidazol-5-yl)propanoyl]-N-[(S)-phenyl[4-(propan-2-yl)phenyl]methyl]pyrrolidine-2-carboxamide] the IC50 was 0.058 µM.
`CC(C)c1ccc([C@@H](NC(=O)[C@@H]2C[C@@H](F)CN2C(=O)CCc2ncc[nH]2)c2ccccc2)cc1` [Compound 47, (2S,4R)-4-fluoro-1-[3-(1H-imidazol-2-yl)propanoyl]-N-[(S)-phenyl[4-(propan-2-yl)phenyl]methyl]pyrrolidine-2-carboxamide] was tested, and the IC50 was 0.138 µM.
For `CCn1nccc1C(=O)N1C[C@H](F)C[C@H]1C(=O)N[C@@H](c1ccccc1)c1ccc(C(C)C)cc1` [Compound 53, (2S,4R)-1-(1-ethyl-1H-pyrazole-5-carbonyl)-4-fluoro-N-[(S)-phenyl[4-(propan-2-yl)phenyl]methyl]pyrrolidine-2-carboxamide], the IC50 was 0.789 µM.
`Cc1cc(CC(=O)N2C[C@H](F)C[C@H]2C(=O)N[C@@H](c2ccccc2)c2ccc(C(C)C)cc2)[nH]n1` [Compound 54, (2S,4R)-4-fluoro-1-[2-(3-methyl-1H-pyrazol-5-yl)acetyl]-N-[(S)-phenyl[4-(propan-2-yl)phenyl]methyl]pyrrolidine-2-carboxamide] showed an IC50 of 0.047 µM.
For `CC(C)c1ccc([C@@H](NC(=O)[C@@H]2C[C@@H](F)CN2C(=O)CCc2cccnc2)c2ccccc2)cc1` [Compound 66, (2S,4R)-4-fluoro-N-[(S)-phenyl[4-(propan-2-yl)phenyl]methyl]-1-[3-(pyridin-3-yl)propanoyl]pyrrolidine-2-carboxamide], the IC50 was 0.082 µM.
`CC(=O)N(C)C(C)C(=O)N1C[C@H](F)C[C@H]1C(=O)N[C@@H](c1ccccc1)c1ccc(C(C)C)cc1` (stereo partly drawn) [Compound 71, (2S,4R)-4-fluoro-1-[2-(N-methylacetamido)propanoyl]-N-[(S)-phenyl[4-(propan-2-yl)phenyl]methyl]pyrrolidine-2-carboxamide] gave an IC50 of 0.375 µM.
With `CC(=O)Nc1cc(C(=O)N2C[C@H](F)C[C@H]2C(=O)N[C@@H](c2ccccc2)c2ccc(C(C)C)cc2)ccn1` [Compound 72, (2S,4R)-1-(2-acetamidopyridine-4-carbonyl)-4-fluoro-N-[(S)-phenyl[4-(propan-2-yl)phenyl]methyl]pyrrolidine-2-carboxamide] the IC50 was 0.472 µM.
`CC(C)c1ccc([C@@H](NC(=O)[C@@H]2C[C@@H](F)CN2C(=O)c2cccn3c(=O)[nH]nc23)c2ccccc2)cc1` [Compound 74, (2S,4R)-4-fluoro-1-{3-oxo-2H,3H-[1,2,4]triazolo[4,3-a]pyridine-8-carbonyl}-N-[(S)-phenyl[4-(propan-2-yl)phenyl]methyl]pyrrolidine-2-carboxamide] showed an IC50 of 0.705 µM.
`CC(C)c1ccc([C@@H](NC(=O)[C@@H]2C[C@@H](F)CN2C(=O)c2cc(-c3ccncc3)[nH]n2)c2ccccc2)cc1` [Compound 78, (2S,4R)-4-fluoro-N-[(S)-phenyl[4-(propan-2-yl)phenyl]methyl]-1-[5-(pyridin-4-yl)-1H-pyrazole-3-carbonyl]pyrrolidine-2-carboxamide] showed an IC50 of 0.953 µM.
For `CC(Cn1ccnc1)C(=O)N1C[C@H](F)C[C@H]1C(=O)N[C@@H](c1ccccc1)c1ccc(C(C)C)cc1` (stereo partly drawn) [Compound 79, (2S,4R)-4-fluoro-1-[3-(1H-imidazol-1-yl)-2-methylpropanoyl]-N-[(S)-phenyl[4-(propan-2-yl)phenyl]methyl]pyrrolidine-2-carboxamide], the IC50 was 0.313 µM.
In the case of `CC(Cn1cccn1)C(=O)N1C[C@H](F)C[C@H]1C(=O)N[C@@H](c1ccccc1)c1ccc(C(C)C)cc1` (stereo partly drawn) [Compound 80, (2S,4R)-4-fluoro-1-[2-methyl-3-(1H-pyrazol-1-yl)propanoyl]-N-[(S)-phenyl[4-(propan-2-yl)phenyl]methyl]pyrrolidine-2-carboxamide], the IC50 is reported as 0.318 µM.
With `COCc1oncc1C(=O)N1C[C@H](F)C[C@H]1C(=O)N[C@@H](c1ccccc1)c1ccc(C(C)C)cc1` [Compound 82, (2S,4R)-4-fluoro-1-[5-(methoxymethyl)-1,2-oxazole-4-carbonyl]-N-[(S)-phenyl[4-(propan-2-yl)phenyl]methyl]pyrrolidine-2-carboxamide] the IC50 was 0.504 µM.
`CC(C)c1ccc([C@@H](NC(=O)[C@@H]2C[C@@H](F)CN2C(=O)C(C)(C)c2ccccn2)c2ccccc2)cc1` [Compound 92, (2S,4R)-4-fluoro-1-[2-methyl-2-(pyridin-2-yl)propanoyl]-N-[(S)-phenyl[4-(propan-2-yl)phenyl]methyl]pyrrolidine-2-carboxamide] showed an IC50 of 0.439 µM.
`CC(C)c1ccc([C@@H](NC(=O)[C@@H]2C[C@@H](F)CN2C(=O)c2ccc3c(c2)NC(=O)CC3)c2ccccc2)cc1` [Compound 97, (2S,4R)-4-fluoro-1-(2-oxo-1,2,3,4-tetrahydroquinoline-7-carbonyl)-N-[(S)-phenyl[4-(propan-2-yl)phenyl]methyl]pyrrolidine-2-carboxamide] was tested, and the IC50 was 0.712 µM.
Compound `CC(C)CNC(=O)C(=O)N1C[C@H](F)C[C@H]1C(=O)N[C@@H](c1ccccc1)c1ccc(C(C)C)cc1` [Compound 111, (2S,4R)-4-fluoro-1-{[(2-methylpropyl)carbamoyl]carbonyl}-N-[(S)-phenyl[4-(propan-2-yl)phenyl]methyl]pyrrolidine-2-carboxamide] has an IC50 of 1.08 µM.
For `CC(=O)N1CC(Oc2ccc(C(=O)N3C[C@H](F)C[C@H]3C(=O)N[C@@H](c3ccccc3)c3ccc(C(C)C)cc3)cc2)C1` [Compound 112, (2S,4R)-1-{4-[(1-acetylazetidin-3-yl)oxy]benzoyl}-4-fluoro-N-[(S)-phenyl[4-(propan-2-yl)phenyl]methyl]pyrrolidine-2-carboxamide], the IC50 was 0.854 µM.
`CC(C)c1ccc([C@@H](NC(=O)[C@@H]2C[C@@H](F)CN2C(=O)C(=O)C2CC2)c2ccccc2)cc1` [Compound 113, (2S,4R)-1-(2-cyclopropyl-2-oxoacetyl)-4-fluoro-N-[(S)-phenyl[4-(propan-2-yl)phenyl]methyl]pyrrolidine-2-carboxamide] showed an IC50 of 1.04 µM.
Work on `CC(C)c1ccc([C@@H](NC(=O)[C@@H]2C[C@@H](F)CN2C(=O)C(=O)N(C)C)c2ccccc2)cc1` [Compound 115, (2S,4R)-1-[(dimethylcarbamoyl)carbonyl]-4-fluoro-N-[(S)-phenyl[4-(propan-2-yl)phenyl]methyl]pyrrolidine-2-carboxamide] yielded an IC50 of 0.493 µM.
